Values after ≈ are worked out from the molar mass of the structure shown. Values joined by “and” are separate entries in the source; they are usually repeats but may differ in a detail not shown here. Equal values may be shown once.
What was measured:
Assay in all cases: ≥ marks a high value that may be exact or a test limit, other limits are often not marked, values filed in µg/mL are converted to µM
Escherichia coli MG1655 = test system: Escherichia coli MG1655
Vibrio harveyi = test system: Vibrio harveyi
Aeromonas hydrophila = test system: Aeromonas hydrophila
[1] = test system: Pseudomonas syringae pv. syringae EPS 94
[2] = test system: Erwinia amylovora PMV 6076
[3] = test system: Candida albicans ATCC 90028
[4] = test system: Acinetobacter baumannii ATCC 19606
[5] = test system: Escherichia coli ATCC 25922
[6] = test system: Pseudomonas aeruginosa ATCC 27853
[7] = test system: Cryptococcus neoformans ATCC 208821
[8] = test system: Staphylococcus aureus ATCC 43300
[9] = test system: Klebsiella pneumoniae ATCC 700603
[10] = test system: Staphylococcus aureus ATCC BAA-1556
Bacillus subtilis 168 = test system: Bacillus subtilis 168
Staphylococcus aureus = test system: Staphylococcus aureus
[11] = test system: Micrococcus luteus CCM 144
[12] = test system: Candida albicans F7-39/IDE99
Escherichia coli B = test system: Escherichia coli B
Pseudomonas aeruginosa = test system: Pseudomonas aeruginosa
[13] = test system: Listeria monocytogenes LO28
[14] = test system: Cronobacter sakazakii DPC 6440

**Q.** What does the source list for `CC[C@H](C)[C@H](NC(=O)[C@H](C)NC(=O)[C@H](CCCN=C(N)N)NC(=O)[C@H](Cc1cnc[nH]1)NC(=O)[C@@H](NC(=O)[C@H](C)NC(=O)[C@H](CCCN=C(N)N)NC(=O)[C@@H](NC(=O)CNC(=O)[C@H](C)NC(=O)[C@H](CO)NC(=O)[C@@H](NC(=O)[C@H](Cc1c[nH]c2ccccc12)NC(=O)CNC(=O)[C@@H](NC(=O)[C@@H](NC(=O)[C@H](Cc1cnc[nH]1)NC(=O)[C@H](Cc1cnc[nH]1)NC(=O)[C@@H](NC(=O)[C@@H](N)Cc1ccccc1)[C@@H](C)CC)[C@@H](C)CC)[C@@H](C)CC)[C@@H](C)CC)C(C)C)[C@@H](C)CC)C(=O)N[C@@H](Cc1cnc[nH]1)C(N)=O` [FIHHIIGWISAGVRAIHRAIH]?
**A.** MIC (Escherichia coli MG1655): 8 µM and 16 µM; MIC (Vibrio harveyi): ≥ 64 µM; MIC (Aeromonas hydrophila): ≥ 128 µM

**Q.** How did the MIC (Escherichia coli MG1655) turn out when `CC[C@H](C)[C@H](NC(=O)[C@H](C)NC(=O)[C@H](CCCN=C(N)N)NC(=O)[C@@H](NC(=O)CNC(=O)[C@H](Cc1cnc[nH]1)NC(=O)[C@H](CO)NC(=O)[C@@H](NC(=O)[C@H](Cc1c[nH]c2ccccc12)NC(=O)CNC(=O)[C@@H](NC(=O)[C@@H](NC(=O)[C@H](Cc1cnc[nH]1)NC(=O)[C@H](Cc1cnc[nH]1)NC(=O)[C@@H](NC(=O)[C@@H](N)Cc1ccccc1)[C@@H](C)CC)[C@@H](C)CC)[C@@H](C)CC)[C@@H](C)CC)C(C)C)C(=O)N[C@@H](C)C(=O)N[C@@H](CCCN=C(N)N)C(=O)N[C@@H](C)C(=O)N[C@H](C(=O)N[C@@H](Cc1cnc[nH]1)C(N)=O)[C@@H](C)CC` [FIHHIIGWISHGVRAIARAIH] was run?
**A.** The MIC was 8 µM and 16 µM.

**Q.** What about the MIC (Vibrio harveyi) of the same molecule?
**A.** Its MIC is 16 µM (≈ 38.5 µg/mL).

**Q.** And the MIC (Aeromonas hydrophila)?
**A.** Its MIC is no less than 128 µM.

**Q.** How did the MIC (Vibrio harveyi) turn out when `CC[C@H](C)[C@H](NC(=O)[C@H](C)NC(=O)[C@H](CCCN=C(N)N)NC(=O)[C@H](Cc1cnc[nH]1)NC(=O)[C@@H](NC(=O)[C@H](C)NC(=O)[C@H](CCCN=C(N)N)NC(=O)[C@@H](NC(=O)CNC(=O)[C@H](Cc1cnc[nH]1)NC(=O)[C@H](CO)NC(=O)[C@@H](NC(=O)[C@H](Cc1c[nH]c2ccccc12)NC(=O)CNC(=O)[C@@H](NC(=O)[C@@H](NC(=O)[C@H](Cc1cnc[nH]1)NC(=O)[C@H](Cc1cnc[nH]1)NC(=O)[C@@H](NC(=O)[C@@H](N)Cc1ccccc1)[C@@H](C)CC)[C@@H](C)CC)[C@@H](C)CC)[C@@H](C)CC)C(C)C)[C@@H](C)CC)C(=O)N[C@@H](C)C(N)=O` [FIHHIIGWISHGVRAIHRAIA] was run?
**A.** The MIC was 16 µM (≈ 38.5 µg/mL).

**Q.** What about the MIC (Aeromonas hydrophila) of the same molecule?
**A.** The MIC was 16 µM (≈ 38.5 µg/mL).

**Q.** How did the MIC [1] turn out when `CC[C@H](C)[C@H](NC(=O)[C@H](CCCCN)NC(=O)[C@H](CCCCN)NC(=O)[C@H](Cc1ccccc1)NC(=O)[C@H](CC(C)C)NC(=O)[C@H](CCCCN)NC(=O)[C@H](CCCCN)NC(=O)CN)C(=O)N[C@@H](CC(C)C)C(=O)N[C@@H](CCCCN)C(=O)N[C@@H](Cc1ccc(O)cc1)C(=O)N[C@@H](CC(C)C)C(=O)N[C@@H](C)C(=O)NCC(=O)N1CCC[C@H]1C(=O)N[C@@H](C)C(=O)N[C@@H](CCCCN)C(=O)N[C@@H](Cc1ccccc1)C(=O)N[C@@H](CC(C)C)C(=O)N[C@@H](Cc1cnc[nH]1)C(=O)N[C@@H](CO)C(=O)N[C@@H](C)C(=O)N[C@@H](CCCCN)C(=O)O` [GKKLFKKILKYLAGPAKFLHSAK] was run?
**A.** Its MIC is 3.54 µM (≈ 9.15 µg/mL).

**Q.** And the MIC [2]?
**A.** The MIC was 1.77 µM (≈ 4.57 µg/mL).

**Q.** With `CC(C)C[C@H](NC(=O)CNC(=O)[C@H](CO)NC(=O)CNC(=O)[C@H](CCCN=C(N)N)NC(=O)[C@H](CCCN=C(N)N)NC(=O)CN)C(=O)NCC(=O)N[C@@H](CCCN=C(N)N)C(=O)N[C@@H](CO)C(=O)N[C@@H](CO)C(=O)N[C@@H](CO)C(=O)N[C@@H](CCCN=C(N)N)C(=O)NCC(=O)N[C@@H](CCC(N)=O)C(=O)N[C@@H](CCCN=C(N)N)C(=O)NCC(=O)N[C@@H](CO)C(=O)NCC(=O)N[C@@H](CO)C(=O)NCC(=O)N[C@@H](CCCN=C(N)N)C(=O)O` [GRRGSGLGRSSSRGQRGSGSGR] as the molecule, how does the MIC [3] read?
**A.** Its MIC is 14.7 µM (≈ 32 µg/mL).

**Q.** What about the MIC [4] of the same molecule?
**A.** The MIC was greater than 14.7 µM.

**Q.** What about the MIC [5] of the same molecule?
**A.** Its MIC is greater than 14.7 µM.

**Q.** What about the MIC [6] of the same molecule?
**A.** The MIC was greater than 14.7 µM.

**Q.** And the MIC [7]?
**A.** The MIC was 14.7 µM (≈ 32 µg/mL).

**Q.** And the MIC [8]?
**A.** The MIC was greater than 14.7 µM.

**Q.** And the MIC [9]?
**A.** Its MIC is greater than 14.7 µM.

**Q.** With `C[C@H](NC(=O)[C@@H](NC(=O)[C@H](CCCN=C(N)N)NC(=O)[C@H](CO)NC(=O)CNC(=O)[C@H](CCCN=C(N)N)NC(=O)[C@H](CCC(N)=O)NC(=O)[C@@H](NC(=O)[C@H](CO)NC(=O)[C@H](CCC(N)=O)NC(=O)CNC(=O)[C@H](Cc1cnc[nH]1)NC(=O)CNC(=O)[C@H](CO)NC(=O)[C@H](Cc1cnc[nH]1)NC(=O)[C@H](C)NC(=O)[C@@H](N)Cc1cnc[nH]1)[C@@H](C)O)[C@@H](C)O)C(=O)NCC(=O)N[C@@H](CCCN=C(N)N)C(=O)O` [HAHSGHGQSTQRGSRTAGR] as the molecule, how does the MIC [3] read?
**A.** Its MIC is 16.1 µM (≈ 32 µg/mL).

**Q.** And the MIC [4]?
**A.** Its MIC is greater than 16.1 µM.

**Q.** What about the MIC [5] of the same molecule?
**A.** The MIC was greater than 16.1 µM.

**Q.** And the MIC [6]?
**A.** Its MIC is greater than 16.1 µM.

**Q.** And the MIC [7]?
**A.** The MIC was 16.1 µM (≈ 32 µg/mL).

**Q.** And the MIC [8]?
**A.** The MIC was greater than 16.1 µM.

**Q.** What about the MIC [9] of the same molecule?
**A.** Its MIC is greater than 16.1 µM.

**Q.** Which MIC [10] does the source give for `CC(C)C[C@H](NC(=O)[C@H](CC(C)C)NC(=O)[C@H](Cc1c[nH]c2ccccc12)NC(=O)[C@H](CCCCN)NC(=O)[C@H](CC(C)C)NC(=O)[C@H](CC(C)C)NC(=O)[C@H](CCCCN)NC(=O)[C@@H](N)CCCCN)C(N)=O` [KKLLKWLL] here?
**A.** The MIC was no less than 100 µM.

**Q.** What does the source list for `CC(C)C[C@H](NC(=O)CNC(=O)[C@H](C)NC(=O)CNC(=O)[C@H](Cc1c[nH]c2ccccc12)NC(=O)[C@H](CC(N)=O)NC(=O)[C@@H](N)CC(C)C)C(=O)N[C@@H](CCCCN)C(=O)N[C@@H](Cc1cnc[nH]1)C(=O)NCC(=O)NCC(=O)N[C@@H](CCCCN)C(N)=O` [LNWGAGLKHGGK]?
**A.** MIC (Bacillus subtilis 168): ≥ 100 µM; MIC (Staphylococcus aureus): > 100 µM; MIC [11]: ≥ 100 µM; MIC [12]: ≥ 100 µM; MIC (Escherichia coli B): ≥ 100 µM; MIC (Pseudomonas aeruginosa): > 100 µM

**Q.** With `CC[C@H](C)[C@H](NC(=O)[C@H](C)NC(=O)CNC(=O)[C@H](Cc1c[nH]c2ccccc12)NC(=O)[C@H](CC(N)=O)NC(=O)[C@@H](N)CC(C)C)C(=O)N[C@@H](CC(C)C)C(=O)N[C@@H](CCCCN)C(=O)N[C@@H](Cc1cnc[nH]1)C(=O)N[C@H](C(=O)N[C@@H](CCCCN)C(=O)N[C@@H](CCCCN)C(N)=O)[C@@H](C)CC` [LNWGAILKHIKK] as the molecule, how does the MIC (Bacillus subtilis 168) read?
**A.** The MIC was 13.3 µM (≈ 18.9 µg/mL).

**Q.** And the MIC (Staphylococcus aureus)?
**A.** Its MIC is 100 µM (≈ 142 µg/mL).

**Q.** And the MIC [11]?
**A.** The MIC was 10.8 µM (≈ 15.3 µg/mL).

**Q.** What about the MIC [12] of the same molecule?
**A.** The MIC was 11.3 µM (≈ 16 µg/mL).

**Q.** And the MIC (Escherichia coli B)?
**A.** Its MIC is no less than 70 µM.

**Q.** And the MIC (Pseudomonas aeruginosa)?
**A.** The MIC was 93.3 µM (≈ 132 µg/mL).

**Q.** What does the source list for `CC[C@H](C)[C@H](NC(=O)[C@@H](N)Cc1c[nH]c2ccccc12)C(=O)N[C@@H](CCC(N)=O)C(=O)N1CCC[C@H]1C(=O)N[C@@H](CCCCN)C(=O)N[C@H](C(=O)N[C@@H](C)C(=O)N[C@H](C(=O)N[C@H](C(=O)N1CCC[C@H]1C(=O)N[C@@H](Cc1ccc(O)cc1)C(=O)N[C@H](C(=O)N[C@@H](CCCN=C(N)N)C(=O)N[C@@H](Cc1ccc(O)cc1)C(=O)N[C@@H](CC(C)C)C(=O)O)C(C)C)[C@@H](C)CC)C(C)C)[C@@H](C)O` [WIQPKTAVIPYVRYL]?
**A.** MIC [13]: ≥ 39.1 µM; MIC [14]: ≥ 312 µM

**Q.** Which results are given for `CC[C@H](C)[C@H](NC(=O)[C@@H](N)Cc1c[nH]c2ccccc12)C(=O)N[C@@H](CCC(N)=O)C(=O)N1CCC[C@H]1C(=O)N[C@@H](CCCCN)C(=O)N[C@H](C(=O)N[C@@H](CCCCN)C(=O)N[C@H](C(=O)N[C@H](C(=O)N1CCC[C@H]1C(=O)N[C@@H](Cc1ccc(O)cc1)C(=O)N[C@H](C(=O)N[C@@H](CCCN=C(N)N)C(=O)N[C@@H](C)C(=O)N[C@@H](CC(C)C)C(=O)O)C(C)C)[C@@H](C)CC)C(C)C)[C@@H](C)O` [WIQPKTKVIPYVRAL]?
**A.** MIC [13]: 19.5 µM (≈ 35.4 µg/mL); MIC [14]: ≥ 78.1 µM

**Q.** For `CC[C@H](C)[C@H](NC(=O)[C@@H](N)Cc1c[nH]c2ccccc12)C(=O)N[C@@H](CCCN=C(N)N)C(=O)N[C@@H](Cc1c[nH]c2ccccc12)C(=O)N[C@@H](CC(C)C)C(N)=O` [WIRWL], which MIC [10] is on record?
**A.** Its MIC is no less than 100 µM.

**Q.** How did the MIC [10] turn out when `CC(C)C[C@H](NC(=O)[C@H](Cc1c[nH]c2ccccc12)NC(=O)[C@H](Cc1c[nH]c2ccccc12)NC(=O)[C@H](CC(C)C)NC(=O)[C@H](Cc1c[nH]c2ccccc12)NC(=O)[C@H](Cc1c[nH]c2ccccc12)NC(=O)[C@H](CC(C)C)NC(=O)[C@H](CCCN=C(N)N)NC(=O)[C@@H](N)Cc1c[nH]c2ccccc12)C(N)=O` [WRLWWLWWL] was run?
**A.** The MIC was 6.25 µM (≈ 9.02 µg/mL).

**Q.** With `CC[C@H](C)[C@H](NC(=O)[C@H](Cc1c[nH]c2ccccc12)NC(=O)[C@H](CCCN=C(N)N)NC(=O)[C@H](CCCN=C(N)N)NC(=O)[C@@H](N)Cc1c[nH]c2ccccc12)C(=O)N[C@@H](CCCN=C(N)N)C(=O)N[C@@H](Cc1c[nH]c2ccccc12)C(=O)N[C@@H](CC(C)C)C(N)=O` [WRRWIRWL] as the molecule, how does the MIC [10] read?
**A.** Its MIC is 25 µM (≈ 31.8 µg/mL).
